These results are taken from patent US10550105B2 (Ribon Therapeutics Inc., priority 2018, dated 2020).

The target in the test is PARP7 (Homo sapiens (Human), UniProt Q7Z3E1). Kind of test: Enzymatic assay for inhibition of PARP7: TR-FRET displacement of biotinylated Probe A from the TIPARP active site. It counts as binding. The settings on record: Table A-1. In outline: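 Read-out: 665/615 nm emission ratio (ex 320 nm, 90 μs delay) indexing bound TIPARP–Probe A. Final incubation 30 min, 25° C; compounds in dose response. Curve fit of % inhibition vs concentration; Hill slope floating or fixed at 1 (3-parameter).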
Background: Time-resolved FRET reads energy transfer from a long-lived donor to a nearby acceptor.

What is called IC50 is the point on the concentration scale where inhibition reaches its midpoint. Lower therefore signals higher potency.

Chain of PARP7 (Q7Z3E1 whole entry): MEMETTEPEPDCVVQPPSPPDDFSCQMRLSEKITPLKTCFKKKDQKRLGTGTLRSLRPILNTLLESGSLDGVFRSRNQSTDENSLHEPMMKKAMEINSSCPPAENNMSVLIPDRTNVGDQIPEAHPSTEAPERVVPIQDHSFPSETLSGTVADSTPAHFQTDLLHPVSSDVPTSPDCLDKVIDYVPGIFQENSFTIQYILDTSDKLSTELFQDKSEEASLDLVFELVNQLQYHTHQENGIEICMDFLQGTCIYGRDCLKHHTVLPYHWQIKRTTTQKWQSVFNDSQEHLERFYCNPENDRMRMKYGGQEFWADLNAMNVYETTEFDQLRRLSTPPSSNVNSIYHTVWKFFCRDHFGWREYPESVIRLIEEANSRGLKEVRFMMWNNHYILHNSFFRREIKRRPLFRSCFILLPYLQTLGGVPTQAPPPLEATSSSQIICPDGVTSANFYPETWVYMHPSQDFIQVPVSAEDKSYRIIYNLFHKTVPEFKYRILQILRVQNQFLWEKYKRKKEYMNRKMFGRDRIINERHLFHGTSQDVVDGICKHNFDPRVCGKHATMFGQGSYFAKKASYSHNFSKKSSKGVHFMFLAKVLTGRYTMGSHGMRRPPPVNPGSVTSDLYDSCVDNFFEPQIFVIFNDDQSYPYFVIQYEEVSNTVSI

In turn, `COC[C@@H](COCCC(=O)N1CCN(c2cnc(Cl)cn2)CC1)Oc1cn[nH]c(=O)c1C(F)(F)F` [Example 696, (S)-5-((1-(3-(4-(5-Chloropyrazin-2-yl)piperazin-1-yl)-3-oxopropoxy)-3-methoxypropan-2-yl)oxy)-4-(trifluoromethyl)pyridazin-3(2H)-one] displayed an IC50 of under 100 nM.
In turn, `COC[C@H](COCCC(=O)N1CCN(c2cnc(Cl)cn2)CC1)Oc1cn[nH]c(=O)c1C(F)(F)F` [Example 697, (R)-5-((1-(3-(4-(5-Chloropyrazin-2-yl)piperazin-1-yl)-3-oxopropoxy)-3-methoxypropan-2-yl)oxy)-4-(trifluoromethyl)pyridazin-3(2H)-one] came in with an IC50 of 100 to 1000 nM.
Under `CO[C@@H](C)[C@@H](COCCC(=O)N1CCN(c2ncc(C(F)(F)F)cn2)CC1)Nc1cn[nH]c(=O)c1C(F)(F)F` [Example 698, 5-(((2R,3S)-3-Methoxy-1-(3-oxo-3-(4-(5-(trifluoromethyl)pyrimidin-2-yl)piperazin-1-yl)propoxy)butan-2-yl)amino)-4-(trifluoromethyl)pyridazin-3(2H)-one] stands under 100 nM; under `CO[C@H](C)[C@@H](COCCC(=O)N1CCN(c2ncc(C(F)(F)F)cn2)CC1)Nc1cn[nH]c(=O)c1C(F)(F)F` [Example 699, 5-(((2R,3R)-3-Methoxy-1-(3-oxo-3-(4-(5-(trifluoromethyl)pyrimidin-2-yl)piperazin-1-yl)propoxy)butan-2-yl)amino)-4-(trifluoromethyl)pyridazin-3(2H)-one], under 100 nM.
Under `C[C@@H](COCCC(=O)N1CCN(c2ncc(C(F)(F)F)cn2)CC1)Sc1cn[nH]c(=O)c1Br` [Example 700, (S)-4-Bromo-5-((1-(3-oxo-3-(4-(5-(trifluoromethyl)pyrimidin-2-yl)piperazin-1-yl)propoxy)propan-2-yl)thio)pyridazin-3(2H)-one] stands under 100 nM; under `C[C@@H](COCCC(=O)N1CCN(c2ncc(C(F)(F)F)cn2)CC1)Sc1cn[nH]c(=O)c1Cl` [Example 701, (S)-4-Chloro-5-((1-(3-oxo-3-(4-(5-(trifluoromethyl)pyrimidin-2-yl)piperazin-1-yl)propoxy)propan-2-yl)thio)pyridazin-3(2H)-one], under 100 nM; under `C[C@@H](CSCCC(=O)N1CCN(c2ncc(C(F)(F)F)cn2)CC1)Nc1cn[nH]c(=O)c1C(F)(F)F` [Example 702, (S)-5-((1-((3-Oxo-3-(4-(5-(trifluoromethyl)pyrimidin-2-yl)piperazin-1-yl)propyl)thio)propan-2-yl)amino)-4-(trifluoromethyl)pyridazin-3(2H)-one], under 100 nM.
Under `C[C@H](CSCCC(=O)N1CCN(c2ncc(C(F)(F)F)cn2)CC1)Nc1cn[nH]c(=O)c1C(F)(F)F` [Example 703, (R)-5-((1-((3-Oxo-3-(4-(5-(trifluoromethyl)pyrimidin-2-yl)piperazin-1-yl)propyl)thio)propan-2-yl)amino)-4-(trifluoromethyl)pyridazin-3(2H)-one] stands 100 to 1000 nM; under `O=C(CCOC[C@@H](CCO)Oc1cn[nH]c(=O)c1C(F)(F)F)N1CCN(c2ncc(Cl)cn2)CC1` [Example 704, (R)-5-((1-(3-(4-(5-Chloropyrimidin-2-yl)piperazin-1-yl)-3-oxopropoxy)-4-hydroxybutan-2-yl)oxy)-4-(trifluoromethyl)pyridazin-3(2H)-one], under 100 nM.
Turning to `O=C(CCOC[C@H](CCO)Oc1cn[nH]c(=O)c1C(F)(F)F)N1CCN(c2ncc(Cl)cn2)CC1` [Example 705, (S)-5-((1-(3-(4-(5-Chloropyrimidin-2-yl)piperazin-1-yl)-3-oxopropoxy)-4-hydroxybutan-2-yl)oxy)-4-(trifluoromethyl)pyridazin-3(2H)-one], the IC50 was in the range of 100 to 1000 nM.
Under `C[C@@H](COCCC(=O)N1CCN(c2ncc(C(F)F)cn2)CC1)Nc1cn[nH]c(=O)c1C(F)(F)F` [Example 706, (S)-5-((1-(3-(4-(5-(Difluoromethyl)pyrimidin-2-yl)piperazin-1-yl)-3-oxopropoxy)propan-2-yl)amino)-4-(trifluoromethyl)pyridazin-3(2H)-one] stands under 100 nM; under `C[C@@H](COCCC(=O)N1CCN(c2ncc(C(C)(F)F)cn2)CC1)Nc1cn[nH]c(=O)c1C(F)(F)F` [Example 707, (S)-5-((1-(3-(4-(5-(1,1-Difluoroethyl)pyrimidin-2-yl)piperazin-1-yl)-3-oxopropoxy)propan-2-yl)amino)-4-(trifluoromethyl)pyridazin-3(2H)-one], under 100 nM.
The compound `C[C@@H](COCCC(=O)N1CCN(c2ncc(C(F)(F)F)s2)CC1)Oc1cn[nH]c(=O)c1C(F)(F)F` [Example 708, (S)-5-((1-(3-Oxo-3-(4-(5-(trifluoromethyl)thiazol-2-yl)piperazin-1-yl)propoxy)propan-2-yl)oxy)-4-(trifluoromethyl)pyridazin-3(2H)-one] registered an IC50 of under 100 nM.
Under `C[C@@H](COCCC(=O)N1CCN(c2cnc(C(F)(F)F)s2)CC1)Nc1cn[nH]c(=O)c1C(F)(F)F` [Example 709, (S)-5-((1-(3-Oxo-3-(4-(2-(trifluoromethyl)thiazol-5-yl)piperazin-1-yl)propoxy)propan-2-yl)amino)-4-(trifluoromethyl)pyridazin-3(2H)-one] stands under 100 nM; under `C[C@@H](COCCC(=O)N1CCC(Nc2ncc(C(F)(F)F)cn2)C1)Nc1cn[nH]c(=O)c1C(F)(F)F` (stereo partly drawn) [Example 710, 5-(((2S)-1-(3-Oxo-3-(3-((5-(trifluoromethyl)pyrimidin-2-yl)amino)pyrrolidin-1-yl)propoxy)propan-2-yl)amino)-4-(trifluoromethyl)pyridazin-3(2H)-one], 100 to 1000 nM; under `C[C@@H](COCCC(=O)N1CCN(c2ncc(C#N)s2)CC1)Oc1cn[nH]c(=O)c1C(F)(F)F` [Example 711, (S)-2-(4-(3-(2-((6-Oxo-5-(trifluoromethyl)-1,6-dihydropyridazin-4-yl)oxy)propoxy)propanoyl)piperazin-1-yl)thiazole-5-carbonitrile], under 100 nM.
Under `COC[C@@H](COCCC(=O)N1CCN(c2ncc(C(F)(F)F)s2)CC1)Nc1cn[nH]c(=O)c1C(F)(F)F` [Example 712, (S)-5-((1-Methoxy-3-(3-oxo-3-(4-(5-(trifluoromethyl)thiazol-2-yl)piperazin-1-yl)propoxy)propan-2-yl)amino)-4-(trifluoromethyl)pyridazin-3(2H)-one] stands under 100 nM; under `COC[C@@H](COCCC(=O)N1CCN(c2ncc(C#N)s2)CC1)Nc1cn[nH]c(=O)c1C(F)(F)F` [Example 713, (S)-2-(4-(3-(3-Methoxy-2-((6-oxo-5-(trifluoromethyl)-1,6-dihydropyridazin-4-yl)amino)propoxy)propanoyl)piperazin-1-yl)thiazole-5-carbonitrile], under 100 nM; under `[2H]C1([2H])N(C(=O)CCOC[C@H](C)Oc2cn[nH]c(=O)c2C(F)(F)F)C([2H])([2H])C([2H])([2H])N(c2ccc(C#N)cn2)C1([2H])[2H]` [Example 714, (S)-6-(4-(3-(2-((6-Oxo-5-(trifluoromethyl)-1,6-dihydropyridazin-4-yl)oxy)propoxy)propanoyl)piperazin-1-yl-2,2,3,3,5,5,6,6-d8)nicotinonitrile], under 100 nM.
Under `[2H]C1([2H])N(C(=O)CCOC[C@H](C)Oc2cn[nH]c(=O)c2C(F)(F)F)C([2H])([2H])C([2H])([2H])N(c2ncc(Cl)cn2)C1([2H])[2H]` [Example 715, (S)-5-((1-(3-(4-(5-Chloropyrimidin-2-yl)piperazin-1-yl-2,2,3,3,5,5,6,6-d8)-3-oxopropoxy)propan-2-yl)oxy)-4-(trifluoromethyl)pyridazin-3(2H)-one] stands under 100 nM.
`C[C@@H](COCCC(=O)N1CCC(Oc2ncc(C(F)(F)F)cn2)C1)Nc1cn[nH]c(=O)c1C(F)(F)F` (stereo partly drawn) [Example 716, 5-(((2S)-1-(3-Oxo-3-(3-((5-(trifluoromethyl)pyrimidin-2-yl)oxy)pyrrolidin-1-yl)propoxy)propan-2-yl)amino)-4-(trifluoromethyl)pyridazin-3(2H)-one] showed an IC50 of under 100 nM.
Under `C[C@@H](COCCC(=O)N1CCC(Nc2ncc(C#N)s2)C1)Nc1cn[nH]c(=O)c1C(F)(F)F` (stereo partly drawn) [Example 717, 2-((1-(3-((S)-2-((6-Oxo-5-(trifluoromethyl)-1,6-dihydropyridazin-4-yl)amino)propoxy)propanoyl)pyrrolidin-3-yl)amino)thiazole-5-carbonitrile] stands under 100 nM.
Under `C[C@@H](COCCC(=O)N1CCC(Oc2ncc(C#N)s2)C1)Nc1cn[nH]c(=O)c1C(F)(F)F` (stereo partly drawn) [Example 718, 2-((1-(3-((S)-2-((6-Oxo-5-(trifluoromethyl)-1,6-dihydropyridazin-4-yl)amino)propoxy)propanoyl)pyrrolidin-3-yl)oxy)thiazole-5-carbonitrile] stands under 100 nM; under `C[C@@H](COCCC(=O)N1CCC(Oc2ncc(C(F)(F)F)s2)C1)Nc1cn[nH]c(=O)c1C(F)(F)F` (stereo partly drawn) [Example 720, 5-(((2S)-1-(3-Oxo-3-(3-((5-(trifluoromethyl)thiazol-2-yl)oxy)pyrrolidin-1-yl)propoxy)propan-2-yl)amino)-4-(trifluoromethyl)pyridazin-3(2H)-one], under 100 nM.
Under `C[C@@H](COCCC(=O)N1CCN(c2ncc(Cl)s2)CC1)Nc1cn[nH]c(=O)c1C(F)(F)F` [Example 721, (S)-5-((1-(3-(4-(5-Chlorothiazol-2-yl)piperazin-1-yl)-3-oxopropoxy)propan-2-yl)amino)-4-(trifluoromethyl)pyridazin-3(2H)-one] stands under 100 nM; under `C[C@@H](COCCC(=O)N1CCN(c2nnc(C(F)(F)F)s2)CC1)Nc1cn[nH]c(=O)c1C(F)(F)F` [Example 722, (S)-5-((1-(3-Oxo-3-(4-(5-(trifluoromethyl)-1,3,4-thiadiazol-2-yl)piperazin-1-yl)propoxy)propan-2-yl)amino)-4-(trifluoromethyl)pyridazin-3(2H)-one], under 100 nM.
